In ChEMBL document CHEMBL1139038, “Design and synthesis of 3-substituted benzamide derivatives as Bcr-Abl kinase inhibitors” (Bioorg Med Chem Lett, 2006):

Legend:
K562 = assay: Antiproliferative activity against K562 cells; type: functional, cell-based; conditions: Homo sapiens
U-937 = assay: Antiproliferative activity against U937 cells; type: functional, cell-based; conditions: Homo sapiens

Row | Compound | IC50 (K562) [µM] | IC50 (U-937) [µM]
1 | Cc1ccc(NC(=O)c2ccc(CN3CCN(C)CC3)c(I)c2)cc1Nc1nccc(-c2cccnc2)n1 | 0.01 | 6
2 | Cc1ccc(NC(=O)c2ccc(CN3CCN(C)CC3)c(C(F)(F)F)c2)cc1Nc1nccc(-c2cccnc2)n1 |  | 4
3 | Cc1ccc(NC(=O)c2ccc(CN3CCN(C)CC3)c(F)c2)cc1Nc1nccc(-c2cccnc2)n1 |  | 8
4 | Cc1ccc(NC(=O)c2ccc(CN3CCN(C)CC3)c(C(F)(F)F)c2)cc1Nc1nccc(-c2cncnc2)n1 |  | 5
5 | Cc1ccc(NC(=O)c2ccc(CN3CC[C@@H](N(C)C)C3)c(C(F)(F)F)c2)cc1Nc1nccc(-c2cncnc2)n1 | 0.004 | 9
6 | Cc1ccc(NC(=O)c2ccc(CN3CC(N(C)C)C3)c(C(F)(F)F)c2)cc1Nc1nccc(-c2cncnc2)n1 | 0.017 | > 100
7 | Cc1ccc(NC(=O)c2ccc(CN3CCN(C)CC3)c(Cl)c2)cc1Nc1nccc(-c2cccnc2)n1 | 0.01 | 9
8 | Cc1ccc(NC(=O)c2ccc(CN3CCN(C)CC3)c(Br)c2)cc1Nc1nccc(-c2cccnc2)n1 |  | 5
9 | Cc1ccc(NC(=O)c2ccc(CN3CC[C@H](CN(C)C)C3)c(C(F)(F)F)c2)cc1Nc1nccc(-c2cncnc2)n1 | 0.011 | 20
10 | Cc1ccc(NC(=O)c2ccc(CN3CC[C@@H](CN(C)C)C3)c(C(F)(F)F)c2)cc1Nc1nccc(-c2cncnc2)n1 | 0.009 | > 100
11 | Cc1ccc(NC(=O)c2ccc(CN3CC[C@H](N(C)C)C3)c(C(F)(F)F)c2)cc1Nc1nccc(-c2cncnc2)n1 [BAFETINIB] | 0.011 | 10
12 | Cc1ccc(NC(=O)c2ccc(CN3CCN(C)CC3)cc2)cc1Nc1nccc(-c2cccnc2)n1 [IMATINIB] |  | 14
